pKi: −log10 of the molar value. Read-outs that look alike come from different tables or passages of the source.
How the values were obtained:
rEP3 receptor = biological target: T1, rEP3 receptor (UniProt P34980); assay: Competitive binding assay of [3H]PGE2 to rEP3 receptor; conditions: [3H]-PGE2 competitive binding, membranes of stably transfected cells, pH 7.4, 60 minutes at 30° C.; read-out: EP3, Ki
T1 sequence (P34980 1-365): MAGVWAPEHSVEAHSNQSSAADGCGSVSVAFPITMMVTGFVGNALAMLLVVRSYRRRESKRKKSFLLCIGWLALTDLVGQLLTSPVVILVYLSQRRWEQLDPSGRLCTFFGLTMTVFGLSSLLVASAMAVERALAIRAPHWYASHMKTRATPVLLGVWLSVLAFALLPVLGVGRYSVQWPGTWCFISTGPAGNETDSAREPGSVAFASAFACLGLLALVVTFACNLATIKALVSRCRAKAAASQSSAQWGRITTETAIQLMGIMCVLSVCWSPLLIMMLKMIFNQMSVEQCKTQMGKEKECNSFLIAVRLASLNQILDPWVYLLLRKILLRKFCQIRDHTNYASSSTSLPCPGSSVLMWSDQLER
Protocol: (§1) Competitive Binding Assay of [^3H]PGE2 to rEP1, rEP2, rEP3 and rEP4 Receptor
(§2) Stably transfected cells expressing EP3 were grown in F-12 media (GIBCO) supplemented with 10% heat inactivated certified Fetal Bovine Serum (GIBCO) and pelleted. Prostanoid receptor EP2 or EP4 cDNA corresponding to the full-length coding sequence was subcloned into the appropriate sites of the mammalian expresson vector pcDNA 3.1(+)/Zeo (Invitrogen). Transfection-scale quantities of the vector were prepared using the Qiagen Endo-Free Plasmid Maxi Kit and transfected into COS-7 cells using FuGene 6 (Roche Molecular) according to the manufacturer's instructions (Roche). COS-7 cells were grown in DMEM (GIBCO) supplemented with 10% heat inactivated certified Fetal Bovine Serum (GIBCO) and Gentamicin (GIBCO), and were harvested 72 hours after transfection. Cells were pelleted by centrifugation, washed with PBS (GIBCO), repelleted, then flash-frozen in dry-ice/Ethanol or used directly for membrane preparation.
(§3) All procedures for membrane preparation were performed at 4° C. Prostanoid receptor-transfected COS-7 cells or stably transfected CHO cells were homogenized in assay buffers (see recipe, below) using a Polytron homogenizer (Brinkman) and centrifuged at 48,000×g for 30 minutes. Pellets were resuspended in assay buffer and resuspended by sonication using a Branson sonifier. Protein concentration was determined using the BioRad DC Protein Assay following the manufacturer's directions and stored at −80° C.
Methods for competitive affinity binding assays of EP2, EP3 and EP4 were derived from those described in M. Abramovitz et al, “The utilization of recombinant prostanoid receptors to determine the affinities and selectivities of prostaglandins and related analogs” Biochimica et Biophysica Acta 1483 (2000) 285-293. Binding assays were performed in a final incubation volume of 0.2 mL in the following assay buffers: 20 mM HEPES, 1 mM EDTA, and 10 mM MgCl2 (pH 7.4) (EP3) or 10 mM MES, 10 mM MnCl2, and 1 mM EDTA_(pH to 6.0 with NaOH) (EP2 and EP4) and radioligand {2.25 nM (EP3) or 2.5 nM (EP2) [^3H]-PGE2 (200 Ci/mmol, NEN)}. […] Non-specific binding was determined in the presence of 10 µM of non-radioactive PGE2 (Cayman Chemical). […] The filters were washed with 3-4 mL of wash buffer (20 mM HEPES pH 7.4 for EP3, 10 mM MES, 0.01% BSA, pH 6.0 for EP2 and EP4), dried for at least 1 hour at room temperature, and the residual radioactivity bound to the individual filters determined by scintillation counting with addition of 37.5 uL of Microscint 20 (Packard) using a Packard TopCount Microplate Scintillation Counter. Statistics of binding were determined using Prism v 3.0 software (GraphPad).

rEP2 receptor = rEP2 receptor (UniProt Q62928); assay: Competitive binding assay of [3H]PGE2 to rEP2 receptor; conditions: [3H]-PGE2 competitive binding, membranes of transfected COS-7 cells, pH 6.0, 45 minutes at 23° C.; read-out: EP2, Ki
Protocol: as §1, §2, §3
Methods for competitive affinity binding assays of EP2, EP3 and EP4 were derived from those described in M. Abramovitz et al, “The utilization of recombinant prostanoid receptors to determine the affinities and selectivities of prostaglandins and related analogs” Biochimica et Biophysica Acta 1483 (2000) 285-293. Binding assays were performed in a final incubation volume of 0.2 mL in the following assay buffers: 20 mM HEPES, 1 mM EDTA, and 10 mM MgCl2 (pH 7.4) (EP3) or 10 mM MES, 10 mM MnCl2, and 1 mM EDTA_(pH to 6.0 with NaOH) (EP2 and EP4) and radioligand {2.25 nM (EP3) or 2.5 nM (EP2) [^3H]-PGE2 (200 Ci/mmol, NEN)}. Reactions were initiated by addition of membrane protein (approximately 50 ug/reaction for EP3, 100 ug for EP2 and EP4). Dimethylsulfoxide (Sigma) concentration was kept constant at 1% (v/v) in all incubations, and compounds were assayed at final concentrations of 100 uM-0.3 nM. Non-specific binding was determined in the presence of 10 µM of non-radioactive PGE2 (Cayman Chemical). Incubations were conducted for 60 minutes at 30° C. (EP3) or 45 minutes at 23° C. (EP2 and EP4). Incubations were terminated by rapid filtration through a 96-well Unifilter GF/B (Packard) (prewetted in 10 mM MES, 0.01% BSA, pH 6.0 for EP2) at 4° C. using a Filtermate 196 96-well semi-automated cell harvester (Packard). The filters were washed with 3-4 mL of wash buffer (20 mM HEPES pH 7.4 for EP3, 10 mM MES, 0.01% BSA, pH 6.0 for EP2 and EP4), dried for at least 1 hour at room temperature, and the residual radioactivity bound to the individual filters determined by scintillation counting with addition of 37.5 uL of Microscint 20 (Packard) using a Packard TopCount Microplate Scintillation Counter. Statistics of binding were determined using Prism v 3.0 software (GraphPad).

rEP4 receptor = rEP4 receptor (UniProt P43114); assay: Competitive binding assay of [3H]PGE2 to rEP4 receptor
Protocol: as §1, §2, §3
Reactions were initiated by addition of membrane protein (approximately 50 ug/reaction for EP3, 100 ug for EP2 and EP4). Dimethylsulfoxide (Sigma) concentration was kept constant at 1% (v/v) in all incubations, and compounds were assayed at final concentrations of 100 uM-0.3 nM. Non-specific binding was determined in the presence of 10 µM of non-radioactive PGE2 (Cayman Chemical). Incubations were conducted for 60 minutes at 30° C. (EP3) or 45 minutes at 23° C. (EP2 and EP4). […] The filters were washed with 3-4 mL of wash buffer (20 mM HEPES pH 7.4 for EP3, 10 mM MES, 0.01% BSA, pH 6.0 for EP2 and EP4), dried for at least 1 hour at room temperature, and the residual radioactivity bound to the individual filters determined by scintillation counting with addition of 37.5 uL of Microscint 20 (Packard) using a Packard TopCount Microplate Scintillation Counter. Statistics of binding were determined using Prism v 3.0 software (GraphPad).

[1] = [3H]-PGE2 competitive binding, membranes of transfected COS-7 cells, pH 6.0, 45 minutes at 23° C.; read-out: EP4, Ki

SMILES | pKi (rEP3 receptor) | pKi (rEP2 receptor) | pKi (rEP4 receptor; [1]) | pKi (rEP4 receptor; read-out: EP4, Ki; [3H]-PGE2 competitive binding, membranes of transfected COS-7 cells, pH 6.0, 45 minutes at 23° C.)
CCCCC[C@H](O)/C=C/[C@H]1CCC(=O)N1CCSCCCC(=O)O [Compound 1, 4-[(2-{(2R)-2-[(1E,3S)-3-hydroxyoct-1-enyl]-5-oxopyrrolidin-1-yl}ethyl)thio]butanoic acid] | 5.59 | 5.80 | 8.30 | 
CCCCCC(O)/C=C/[C@H]1CCC(=O)N1C/C=C\COCC(=O)O (stereo partly drawn) [Compound 8, {(Z)-4-[(R)-2-((E)-3-hydroxy-oct-1-enyl)-5-oxo-pyrrolidin-1-yl]-but-2-enyloxy}-acetic acid] |  | < 5.00 |  | 
O=C(O)COCCCCN1C(=O)CC[C@@H]1/C=C/[C@@H](O)Cc1cccc(C(F)(F)F)c1 [Compound 10, (4-{(R)-2-[(S)-(E)-3-hydroxy-4-(3-trifluoromethyl-phenyl)-but-1-enyl]-5-oxo-pyrrolidin-1-yl}-butoxy)-acetic acid] | < 5.00 | 4.18 |  | 8.15
CCCCCC(C)(O)/C=C/[C@H]1CCC(=O)N1CCSCCCC(=O)O (stereo partly drawn) [Compound 14, 4-{2-[(R)-2-((E)-3-hydroxy-3-methyl-oct-1-enyl)-5-oxo-pyrrolidin-1-yl]-ethylsulfanyl}-butyric acid] |  | 4.74 | 7.05 | 
O=C(O)CCCSCCN1C(=O)CC[C@@H]1CC[C@@H](O)c1cccc(Oc2cccc(F)c2)c1 [Compound 15, 4-[2-((S)-2-{(R)-3-[3-(3-Fluoro-phenoxy)-phenyl]-3-hydroxy-propyl}-5-oxo-pyrrolidin-1-yl)-ethylsulfanyl]-butyric Acid] | 4.31 | 5.11 | 8.10 | 
CCCCC[C@H](O)/C=C/C1CCC(=O)N1OCCCCCC(=O)O (stereo partly drawn) [Compound 28, 6-[2-((S)-(E)-3-Hydroxy-oct-1-enyl)-5-oxo-pyrrolidin-1-yloxy]-hexanoic acid] | < 5.00 | < 5.00 | 7.22 | 
